Assay results taken from article PMC9380671, “Development of spiro-3-indolin-2-one containing compounds of antiproliferative and anti-SARS-CoV-2 properties” (Scientific Reports, 2022).
Like-named read-outs stand apart in the source and are kept apart here.

Key:
[1] = system: HCT116 (colon) cancer cell line; test: MTT antiproliferation, HCT116; type: cell-based, human; settings: for IC50: Homo sapiens, HCT-116, 72 h, read-out: IC50 (µM) ± SEM HCT116; for SI (selectivity index) HCT116: IC50 of RPE1/IC50 of cancer cell line
Summary of the method: (§1)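 Cells seeded 30000/well for 24 h, then treated for 72 h with triplicate wells per dose; 0.5% DMSO as negative control. MTT (2.5 mg ml^-1) added for 4 h at 37 °C, crystals dissolved in 10% SDS overnight. Surviving fraction = O.D. treated / O.D. control.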

[2] = system: A431 (skin squamous) cancer cell line; test: MTT antiproliferation, A431; type: cell-based, human; settings: for IC50: Homo sapiens; for SI (selectivity index) A431: IC50 of RPE1/IC50 of cancer cell line
Summary of the method: as §1

[3] = system: MCF7 (breast cancer cell line); test: PI-flow cytometry cell cycle studies; type: cell-based, human; settings: MCF7, PI-FC, compound at its MTT IC50
Protocol: Flow cytometry (FC) is a reliable technique for evaluation of cancer cell progression[72]–[74]. Illumination of the cells by lasers can identify the stained propidium iodide (PI) DNA cell content in stoichiometric population value. This is a commonly accessible methodology for studying cancer cell antiproliferation and cell cycle phase suppression.
Cell cycle studies for the most promising agents synthesized (6l and 6m) against MCF7 (breast) cancer call were conducted by the standard technique. The Cells were suspended in DMEM medium in addition to 1% antibiotic–antimycotic mixture (10000 μg ml^-1 potassium penicillin, 10000 μg ml^-1 streptomycin sulfate and 25 μg ml^-1 amphotericin B), 10% fetal bovine serum and 1% L-glutamine at 37 °C, under 5% CO2 and 95% humidity. Cells were seeded at concentration of 30000 cells per well in fresh complete growth medium in 96-well tissue culture microtiter plates for 24 h. Media was aspirated, fresh complete medium was added and cells were incubated with the IC50 concentration of the tested compounds which determined previously in the MTT antiproliferation testing assay. The ab139418-Propidium Iodide Flow Cytometry kit for cycle analysis (reader: BD FACS Calibur)^8 was used for cell cycle analysis. The Annexin V-FITC Apoptosis Detection Kit (Catalog#K101-25) was utilized for apoptosis studies.^9 All the studies were conducted according to the manufacturer’s instruction.

[4] = molecular target: T1, EGFR (Homo sapiens, UniProt P00533); type: cell-based; settings: western blot, MCF7, compound at its MTT IC50; for EGFR RQ (relative quantification): control RQ 3.4461
T1 construct: Western blot technique was considered for EGFR and VEGFR-2 properties determination; endogenous in cells; host or cells: MCF7 (breast cancer cell line)
T1 sequence (P00533 25-1210): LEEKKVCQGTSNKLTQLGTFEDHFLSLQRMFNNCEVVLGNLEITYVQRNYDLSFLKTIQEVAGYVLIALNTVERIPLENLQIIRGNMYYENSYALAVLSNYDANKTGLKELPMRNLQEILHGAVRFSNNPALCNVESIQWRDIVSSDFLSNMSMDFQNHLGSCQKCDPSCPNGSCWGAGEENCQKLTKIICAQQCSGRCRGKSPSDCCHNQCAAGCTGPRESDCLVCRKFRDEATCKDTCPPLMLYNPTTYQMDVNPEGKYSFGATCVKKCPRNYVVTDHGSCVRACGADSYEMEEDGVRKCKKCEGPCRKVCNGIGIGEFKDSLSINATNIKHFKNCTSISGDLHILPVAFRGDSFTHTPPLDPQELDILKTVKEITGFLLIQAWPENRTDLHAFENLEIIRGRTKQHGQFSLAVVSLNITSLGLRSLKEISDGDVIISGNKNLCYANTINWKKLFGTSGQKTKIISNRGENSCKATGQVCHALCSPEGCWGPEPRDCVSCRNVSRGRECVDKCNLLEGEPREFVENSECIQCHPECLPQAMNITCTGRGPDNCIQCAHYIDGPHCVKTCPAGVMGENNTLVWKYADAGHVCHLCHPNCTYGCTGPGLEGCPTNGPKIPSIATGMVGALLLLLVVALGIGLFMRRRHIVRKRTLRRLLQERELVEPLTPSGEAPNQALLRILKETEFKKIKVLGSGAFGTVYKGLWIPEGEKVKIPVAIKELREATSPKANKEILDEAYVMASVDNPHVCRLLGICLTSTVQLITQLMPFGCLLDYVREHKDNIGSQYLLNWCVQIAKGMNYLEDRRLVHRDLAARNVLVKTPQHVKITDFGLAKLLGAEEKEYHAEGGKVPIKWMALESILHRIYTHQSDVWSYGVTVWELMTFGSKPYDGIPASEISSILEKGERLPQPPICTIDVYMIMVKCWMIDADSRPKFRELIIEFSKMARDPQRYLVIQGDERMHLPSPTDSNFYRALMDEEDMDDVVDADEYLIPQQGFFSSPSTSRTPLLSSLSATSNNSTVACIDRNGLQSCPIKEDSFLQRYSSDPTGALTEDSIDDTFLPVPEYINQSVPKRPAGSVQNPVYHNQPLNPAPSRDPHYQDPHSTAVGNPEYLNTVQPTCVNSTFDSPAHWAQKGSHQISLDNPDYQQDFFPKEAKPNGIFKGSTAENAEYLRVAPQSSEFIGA
Summary of the method: (§2)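 Western blot of MCF7 breast cancer cells, each agent tested at its own IC50 from the MTT assay on that line, following the manufacturer's instructions.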

[5] = molecular target: T2, VEGFR-2 (Homo sapiens, UniProt P35968); type: cell-based; settings: western blot, MCF7, compound at its MTT IC50; for VEGFR-2 RQ (relative quantification): control RQ 3.2634
T2 construct: Western blot technique was considered for EGFR and VEGFR-2 properties determination; endogenous in cells; host or cells: MCF7 (breast cancer cell line)
T2 sequence (P35968 20-1356): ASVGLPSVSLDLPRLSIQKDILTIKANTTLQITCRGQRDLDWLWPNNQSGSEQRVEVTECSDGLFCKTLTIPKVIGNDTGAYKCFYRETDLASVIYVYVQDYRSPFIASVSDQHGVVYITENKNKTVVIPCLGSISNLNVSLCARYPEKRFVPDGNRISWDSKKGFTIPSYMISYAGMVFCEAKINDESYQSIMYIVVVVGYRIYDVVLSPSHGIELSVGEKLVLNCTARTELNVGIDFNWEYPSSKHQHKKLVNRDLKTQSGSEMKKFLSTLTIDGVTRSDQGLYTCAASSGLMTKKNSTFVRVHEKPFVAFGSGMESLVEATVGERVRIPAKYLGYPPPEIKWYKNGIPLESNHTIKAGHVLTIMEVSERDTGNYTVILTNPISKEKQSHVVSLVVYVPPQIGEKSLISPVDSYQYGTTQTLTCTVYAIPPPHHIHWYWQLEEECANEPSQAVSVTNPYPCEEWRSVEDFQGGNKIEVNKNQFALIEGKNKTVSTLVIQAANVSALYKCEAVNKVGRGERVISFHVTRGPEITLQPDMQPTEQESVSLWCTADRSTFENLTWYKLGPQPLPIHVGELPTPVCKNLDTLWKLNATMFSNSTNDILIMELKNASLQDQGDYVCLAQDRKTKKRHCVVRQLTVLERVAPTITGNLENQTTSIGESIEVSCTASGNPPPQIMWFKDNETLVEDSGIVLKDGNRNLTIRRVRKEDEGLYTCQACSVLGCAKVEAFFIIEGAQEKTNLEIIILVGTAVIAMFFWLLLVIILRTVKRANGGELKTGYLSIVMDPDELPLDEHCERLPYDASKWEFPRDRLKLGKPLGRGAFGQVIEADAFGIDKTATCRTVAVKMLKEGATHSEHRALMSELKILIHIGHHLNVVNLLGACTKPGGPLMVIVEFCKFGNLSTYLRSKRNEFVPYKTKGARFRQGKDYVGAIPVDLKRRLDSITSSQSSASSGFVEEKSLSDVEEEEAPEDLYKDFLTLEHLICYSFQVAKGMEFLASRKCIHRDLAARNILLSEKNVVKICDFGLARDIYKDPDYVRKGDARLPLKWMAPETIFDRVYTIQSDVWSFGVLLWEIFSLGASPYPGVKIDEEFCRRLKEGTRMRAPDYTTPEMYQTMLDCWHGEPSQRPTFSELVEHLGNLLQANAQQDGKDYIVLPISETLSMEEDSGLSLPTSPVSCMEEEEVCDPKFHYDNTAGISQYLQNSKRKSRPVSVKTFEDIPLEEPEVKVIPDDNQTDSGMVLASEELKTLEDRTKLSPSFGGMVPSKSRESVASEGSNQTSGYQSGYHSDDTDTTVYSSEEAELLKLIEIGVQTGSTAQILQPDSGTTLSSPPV
Summary of the method: as §2

[6] = system: SARS-CoV-2 (hCoV-19/Egypt/NRC-03/2020); test: Vero-E6 cell viral infection model, anti-SARS-CoV-2 IC50 (CPE, crystal violet); type: cell-based; settings: for IC50: Severe acute respiratory syndrome coronavirus 2, Vero C1008; for SI = CC50/IC50: Vero-E6, SARS-CoV-2
[7] = molecular target: AChE (Homo sapiens, UniProt P22303); test: AChE inhibition (DTNB, acetylthiocholine); type: biochemical; settings: for IC50: read-out: AChE (IC50, μM) ± SD
AChE, sequence (P22303 32-614): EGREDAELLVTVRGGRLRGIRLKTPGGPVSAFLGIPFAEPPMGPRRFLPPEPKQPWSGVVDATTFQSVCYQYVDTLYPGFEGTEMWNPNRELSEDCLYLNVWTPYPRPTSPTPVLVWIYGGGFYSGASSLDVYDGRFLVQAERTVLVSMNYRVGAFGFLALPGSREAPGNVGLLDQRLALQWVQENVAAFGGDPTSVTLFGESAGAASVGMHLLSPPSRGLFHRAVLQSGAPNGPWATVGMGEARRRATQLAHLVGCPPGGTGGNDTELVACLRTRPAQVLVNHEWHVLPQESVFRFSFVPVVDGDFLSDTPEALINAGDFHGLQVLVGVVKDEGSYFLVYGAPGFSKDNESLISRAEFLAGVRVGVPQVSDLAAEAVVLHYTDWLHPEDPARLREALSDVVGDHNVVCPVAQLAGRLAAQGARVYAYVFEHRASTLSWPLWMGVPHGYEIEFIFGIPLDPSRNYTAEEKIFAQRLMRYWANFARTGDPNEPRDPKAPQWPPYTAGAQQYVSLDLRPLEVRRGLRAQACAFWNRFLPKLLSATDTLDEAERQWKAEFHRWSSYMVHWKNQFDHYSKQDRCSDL
Protocol: All compounds were dissolved in MeOH.

[8] = A-431, 72 h, read-out: IC50 (µM) ± SEM A431
[9] = A-431, read-out: Observed log(IC50, μM) (A431) (converted)
[10] = Vero-E6, 72 h, reduction of virus-induced CPE, read-out: IC50 (µM) SARS-CoV-2
[11] = log of observed IC50 in μM, read-out: Observed log(IC50, μM) (SARS-CoV-2) (converted)

Structure (SMILES)	IC50 [1] [µM]	SI (selectivity index) HCT116 [1]	IC50 [2, 8] [µM]	IC50 [2, 9] [µM]	SI (selectivity index) A431 [2]	efficacy, times more than the standard reference 5-fluorouracil (A431) ([2]; ratio of IC50 values)	% DNA content G0–G1 [3] [%]	% DNA content G2/M [3] [%]	% DNA content S [3] [%]	EGFR % Inhibition [4] [%]	EGFR RQ (relative quantification) [4]	VEGFR-2 % Inhibition [5] [%]	VEGFR-2 RQ (relative quantification) [5]	IC50 [6, 10] [µM]	IC50 [6, 11] [µM]	SI = CC50/IC50 [6]	SI = IC50 (AChE)/IC50 (BChE) [7]	IC50 [7] [µM]
CN1CC(c2ccc(Br)cc2)C2(CN(S(C)(=O)=O)C/C(=C\c3ccc(Br)cc3)C2=O)C12C(=O)Nc1ccccc12 (centres unmarked) [Compound 6m, (E)-5″-(4-Bromobenzylidene)-4′-(4-bromophenyl)-1′-methyl-1″-(methylsulfonyl)dispiro[indoline-3,2′-pyrrolidine-3′,3″-piperidine]-2,4″-dione]	3.24 ± 0.27	4.6	2.43 ± 0.18	2.43	6.1	about 9.6 times	62.51	2.38	35.11	65.6	1.1845	61.3	1.264	8.92	8.92	17.9	1.1	29.7 ± 4.05
CCS(=O)(=O)N1C/C(=C\c2ccc(Cl)cc2)C(=O)C2(C1)C(c1ccc(Cl)cc1)CN(C)C21C(=O)Nc2ccc(Cl)cc21 (centres unmarked) [Compound 6l, (E)-5-Chloro-5″-(4-chlorobenzylidene)-4′-(4-chlorophenyl)-1″-(ethylsulfonyl)-1′-methyldispiro[indoline-3,2′-pyrrolidine-3′,3″-piperidine]-2,4″-dione]	4.11 ± 0.41	> 12.2	3.69 ± 0.33	3.69	> 13.5	–	66.13	10.13	23.74	65.7	1.18	60.2	1.299	31.4	31.4	15.1	2.0	23.6 ± 7.73
